Molecules are shown by their SMILES. Where only a bound is given, the exact number is not on record here.

This test concerns C57BL/6 mice. Put plainly: animal or person. The format is in vivo. The following applies: Mus musculus, sc, 0.5 h, s.c. administration, 30 min, 55° C. water, read-out: ED50 (mg/kg) at 30 min on C57BL/6 mice in Warm-water Tail-flick Test. On the technique in general: Hot-plate and tail-flick tests time the reaction to a heat stimulus.
With `CCOC[C@@]1(CCc2nccs2)CCN(C(C)(C)c2ccc(C)nc2)C1` [Compound 363, (S)-2-(2-(3-(ethoxymethyl)-1-(2-(6-methylpyridin-3-yl)propan-2-yl)pyrrolidin-3-yl)ethyl)thiazole], the ED50 is less than 10 mg/kg.

Turning to `CCOC[C@@]1(CCc2ccc(F)cc2)CCN(C(C)(C)c2ccc(C)nc2)C1` [Compound 364, (S)-5-(2-(3-(ethoxymethyl)-3-(4-fluoro-phenethyl)pyrrolidin-1-yl)propan-2-yl)-2-methylpyridine], the ED50 was less than 10 mg/kg.

Take `CCOC[C@@]1(CCc2ccc(F)s2)CCN(C(C)(C)c2ccc(C)nc2)C1` [Compound 365, (S)-5-(2-(3-(ethoxymethyl)-3-(2-(5-fluorothiophen-2-yl)ethyl)pyrrolidin-1-yl)propan-2-yl)-2-methylpyridine]: the ED50 was less than 10 mg/kg.

On to `CCOC[C@@]1(CCc2ccccc2)CCN(C(C)(C)c2ccc(C)nc2)C1` [Compound 366, (S)-5-(2-(3-(ethoxymethyl)-3-phenethylpyrrolidin-1-yl)propan-2-yl)-2-methylpyridine], for which the ED50 was less than 10 mg/kg.

Turning to `CCOC[C@@]1(CCc2cc[nH]c(=O)c2)CCN(C(C)(C)c2ccc(C)nc2)C1.Cl` [Compound 367, (S)-4-(2-(3-(ethoxymethyl)-1-(2-(6-methylpyridin-3-yl)propan-2-yl)pyrrolidin-3-yl)ethyl)pyridin-2(1H)-one HCl], the ED50 is less than 10 mg/kg.

For the compound `Cc1ccc(C(C)(C)N2CC[C@@](CO)(CCc3cc[nH]c(=O)c3)C2)cn1.Cl` [Compound 368, (S)-4-(2-(3-(hydroxymethyl)-1-(2-(6-methylpyridin-3-yl)propan-2-yl)pyrrolidin-3-yl)ethyl)pyridin-2(1H)-one HCl], the ED50 was less than 10 mg/kg.

On to `COc1cc(CC[C@]2(CO)CCN(C(C)(C)c3ccc(C)nc3)C2)ccn1.Cl` [Compound 369, (S)-(3-(2-(2-methoxypyridin-4-yl)ethyl)-1-(2-(6-methylpyridin-3-yl)propan-2-yl)pyrrolidin-3-yl)methanol HCl], for which the ED50 is less than 10 mg/kg.

Consider `CCOC[C@@]1(CCc2ccc(OC)nc2)CCN(C(C)(C)c2ccc(C)nc2)C1.Cl` [Compound 370, (S)-5-(2-(3-(ethoxymethyl)-1-(2-(6-methylpyridin-3-yl)propan-2-yl)pyrrolidin-3-yl)ethyl)-2-methoxypyridine HCl], for which the ED50 is less than 10 mg/kg.

For the compound `CCOC[C@@]1(CCc2cccnc2)CCN(C(C)(C)c2ccc(C)nc2)C1` [Compound 371, (S)-5-(2-(3-(ethoxymethyl)-3-(2-(pyridin-3-yl)ethyl)pyrrolidin-1-yl)propan-2-yl)-2-methylpyridine], the ED50 is less than 10 mg/kg.

On to `CCOC[C@@]1(CCc2ccc(F)cn2)CCN(C(C)(C)c2ccc(C)nc2)C1` [Compound 372, (S)-2-(2-(3-(ethoxymethyl)-1-(2-(6-methylpyridin-3-yl)propan-2-yl)pyrrolidin-3-yl)ethyl)-5-fluoropyridine], for which the ED50 is less than 10 mg/kg.

On to `CCOC[C@@]1(CCc2ccc(C)s2)CCN(C(C)(C)c2ccc(C)nc2)C1` [Compound 373, (S)-5-(2-(3-(ethoxymethyl)-3-(2-(5-methylthiophen-2-yl)ethyl)pyrrolidin-1-yl)propan-2-yl)-2-methylpyridine], for which the ED50 was less than 10 mg/kg.

As for `CCOCC1(CCc2cc(C)sc2C)CCN(C2(c3ccc(C)nc3)CC2)C1` (centres unmarked) [Compound 374, 5-(1-(3-(2-(2,5-dimethylthiophen-3-yl)ethyl)-3-(ethoxy-methyl)pyrrolidin-1-yl)cyclopropyl)-2-methylpyridine], the ED50 was less than 10 mg/kg.

`CCOC[C@@]1(CCc2nccc(=O)[nH]2)CCN(C(C)(C)c2ccc(C)nc2)C1` [Compound 375, (S)-2-(2-(3-(ethoxymethyl)-1-(2-(6-methylpyridin-3-yl)propan-2-yl)pyrrolidin-3-yl)ethyl)pyrimidin-4(3H)-one]: the ED50 is less than 10 mg/kg.

Take `CCOC[C@@]1(CCc2ccc(=O)[nH]c2)CCN(C(C)(C)c2ccc(C)nc2)C1.Cl` [Compound 376]: the ED50 is less than 10 mg/kg.
